Here are results for three molecules from patent publication US11197846B2, “Methods and compositions for treating cannabis use disorder and mitigating cannabinoid withdrawal” (Pleopharma, L.L.C., priority 2020, dated 2021).

“Also recorded” adds a separate entry of the source.

Broadly, the AUC(0-t) is the area under the concentration-time curve up to a stated or last time point. The low end stands for less exposure, the high end for more exposure. As a reminder, the AUC(0-inf) is total exposure, with the tail of the curve extrapolated. A low value points to low exposure. In general, Cmax refers to the maximum level reached in the sampled fluid or tissue. Broadly, the Tmax is the time at which the peak concentration occurs. In general, half-life refers to the time needed for the level to fall by half in the phase considered. A low value points to fast loss.

The conditions of data set [1]: reported; cited from earlier work.
Data set [2] can be described thus: Plasma pharmacokinetics of nabilone and gabapentin after oral PP-01 once daily for four doses (LC-MS/MS), Example 1 clinical study. As to conditions: for AUC(0-t) / AUC(0-inf) / Cmax / Tmax / half-life: human, plasma, oral; for AUC(0-inf): AUC0-∞; for Pharmacokinetics compared with historical controls: nabilone and gabapentin given together as PP-01. From the text:
A total of 14 eligible healthy volunteers with moderate to severe CUD and no contraindications to nabilone or gabapentin were randomized to receive PP-01 (nabilone and gabapentin; Test) or Placebo, in a 1:1 ratio, from a randomization table at the start of Period 1 (Day −1). If participants received PP-01 in Period 1, they received Placebo in Period 2; similarly, if participants received Placebo in Period 1, they received PP-01 in Period 2. Participants received oral doses of PP-01 or Placebo approximately 2 hours before a standardized meal on the morning on the second day of each inpatient admission (Day 1, Periods 1 and 2) and continued to receive once-daily dosing in the morning for a total of four doses per period.
On Day 1, the 0-hour PK blood draw was obtained within 30 minutes prior to the first dose of study drug which was administered by the Investigator (or a staff member as delegated by the Investigator) at approximately 120 minutes prior to the morning standardized breakfast. Venous blood samples of approximately 10 mL each were obtained at the following times following the Day 1 dose to assess nabilone and gabapentin concentrations: 30 and 60 minutes, and 2, 3, and 4 hours (within ±5 minutes of each time point), and 6, 8, 12, and 24 hours (within ±10 minutes of each time point) after study drug administration. The CWS was completed by participants prior to dosing (Baseline) and at 4- and 10-hours post-dose and the sleep questionnaire was completed in the morning prior to dosing. Blood samples to assess serum cortisol were obtained in the evening. Routine safety assessments were performed as scheduled.
On Day 4, the 0-hour PK blood draw was obtained within 30 minutes prior to the dosing of study drug, which was administered by the Investigator (or a staff member as delegated by the Investigator) at approximately 120 minutes prior to the morning standardized breakfast. Venous blood samples of approximately 10 mL each were obtained at the following times following the Day 4 dose to assess nabilone and gabapentin concentrations: 30 and 60 minutes, and 2, 3, and 4 hours (within ±5 minutes of each time point), and 6, 8, 12, and 24 hours (within ±10 minutes of each time point) after study drug administration. The CWS was completed by participants prior to dosing and at 4- and 10-hours post-dose and the sleep questionnaire was completed in the morning prior to dosing; the PGI-S and CGI were completed approximately 4 hours after dosing. Blood samples to assess serum cortisol were obtained in the evening. Routine safety assessments were performed as scheduled.
The following PK assessments were assessed in Periods 1 and 2 on Day 1, Day 2 (trough), Day 4, Day 5 (trough), and Day 8 for nabilone and gabapentin. Baseline concentrations were defined as the 0-minute time point (within 30 minutes of dosing) on Day 1 (Periods 1 and 2). • Area under the plasma concentration-time curve from 0 to the last measurable concentration (AUC0-t) • Area under the plasma concentration-time curve extrapolated to infinity (AUC0-∞) • Peak (maximum) plasma concentration of the drug (Cmax) • Time to peak (maximum) plasma concentration (tmax) • Elimination half-life (t1/2)
Venous blood samples of 10 ml each were collected with K2EDTA anticoagulant for Baseline levels of Δ-9-THC, 11-OHTHC and THC-COOH on Day −1 (Periods 1 and 2). For Periods 1 and 2, levels of nabilone and gabapentin were assessed following the time points listed in Table 2 following the first and fourth dose. Study participants returned on Day 8 (Periods 1 and 2) to have PK samples drawn to help determine the terminal half-life of nabilone. The Baseline (0-hour) time point was collected within 30 minutes prior to dosing.
Baseline concentrations of Δ-9-THC, 11-OHTHC and THC-COOH were determined using a validated liquid chromatographic-tandem mass spectroscopy (LC-MS/MS) assay with a lower limit of quantification (LLOQ) of 0.200 ng/mL.

For data set [3] the following is noted: pH values ranging from 1.2 to 7.0; cited from earlier work.
For a further data set, the system named is GABA receptors. The note with it: concentrations at or below 1 millimolar; cited from earlier work.
Setting [4] is: 6 mg, nabilone 6 mg, Days 1-2, both sequences, arithmetic mean.
The mark [5] stands for this setting: 6 mg, nabilone 6 mg, Days 4-5, both sequences, arithmetic mean.
Setting [6] is: 600 mg, gabapentin 600 mg, Sequence AB, Days 1-2, arithmetic mean.
[7] abbreviates: 600 mg, gabapentin 600 mg, Sequence AB, Days 4-5, arithmetic mean.
Where [8] appears, read: 600 mg, gabapentin 600 mg, Sequence BA, Days 1-2, arithmetic mean.
Setting [9] is: 600 mg, gabapentin 600 mg, Sequence BA, Days 4-5, arithmetic mean.

On to `CCCCCc1cc(O)c2c(c1)OC(C)(C)[C@@H]1CCC(CO)=C[C@@H]21` [11-OH-delta-9-THC, 11-hydroxy-delta-9-tetrahydrocannabinol], for which the “agonist potency relative to delta-9-THC” value in data set [1] was “more potent agonist than delta-9-THC”.
Turning to `CCCCCCC(C)(C)c1cc(O)c2c(c1)OC(C)(C)C1CCC(=O)CC21` (racemic) [Nabilone, (±)-trans-3-(1,1-dimethylheptyl)-6,6a,7,8,10,10a-hexahydro-1-hydroxy-6-6-dimethyl-9H-dibenzo[b,d]pyran-9-one], the exposure AUC(0-t) is 34.1 ng·h/mL in data set [2] (6 mg, AUC0-24, nabilone 6 mg, Days 1-2, both sequences, arithmetic mean) and 33.9 ng·h/mL in data set [2] (6 mg, AUC0-24, nabilone 6 mg, Days 4-5, both sequences, arithmetic mean). Moreover, the values for the AUC(0-inf) in data set [2] (setting [4]) and in data set [2] (setting [5]) were 35.8 ng·h/mL and 37.4 ng·h/mL, respectively. Also, the Cmax turned out to be 8.51 ng/mL in data set [2] (setting [4]) and 8.59 ng/mL in data set [2] (setting [5]). Further, the Tmax is 2.5 ± 1.5 h in data set [2] (6 mg, Tmax, nabilone 6 mg, Days 1-2, both sequences, PK population, arithmetic mean ± SD); 2.3 ± 0.9 h in data set [2] (6 mg, Tmax, nabilone 6 mg, Days 4-5, both sequences, arithmetic mean ± SD); about 2.5 h in data set [2] (mean time to maximal concentration (Tmax), nabilone). Moreover, the half-life in data set [2] (6 mg, t1/2, nabilone 6 mg, Days 1-2, both sequences, arithmetic mean ± SD) was 6.4 ± 1.7 h; in data set [2] (6 mg, t1/2, nabilone 6 mg, Days 4-5, both sequences, arithmetic mean ± SD) it was 9.9 ± 2.5 h. The “Pharmacokinetics compared with historical controls” value in data set [2] is on record as “consistent with historical controls”. The “accumulation over the period studied” value in data set [2] (nabilone, Days 1 to 2 vs Days 4 to 5) was “no accumulation occurred; also recorded: minimal accumulation”. Further, the “solubility in aqueous media” value in data set [3] is “less than 0.5 mg/L”.
As for `NCC1(CC(=O)O)CCCCC1` [Gabapentin, 1-(aminomethyl)cyclohexaneacetic acid], the t1/2 in data set [2] (gabapentin 600 mg, Sequence BA, Days 1-2, arithmetic mean) was 5.3 h. Moreover, in data set [2] (gabapentin, Days 4 to 5 vs Days 1 to 2), the “exposure metrics (Cmax, AUC0-24, AUC0-∞) over time” value is “exposure slightly increased at Days 4 to 5 compared to Days 1 to 2”. Besides, the AUC(0-t) in data set [2] (600 mg, AUC0-24, gabapentin 600 mg, Sequence AB, Days 1-2, arithmetic mean) was 65700 ng·h/mL; in data set [2] (600 mg, AUC0-24, gabapentin 600 mg, Sequence AB, Days 4-5, arithmetic mean), 70500 ng·h/mL; in data set [2] (600 mg, AUC0-24, gabapentin 600 mg, Sequence BA, Days 1-2, arithmetic mean), 53600 ng·h/mL; in data set [2] (600 mg, AUC0-24, gabapentin 600 mg, Sequence BA, Days 4-5, arithmetic mean) it was 58100 ng·h/mL; in data set [2] (AUC0-24, gabapentin, range across days and sequences), 53600 to 70500 ng·h/mL. Besides, the total exposure AUC(0-inf) is 70000 ng·h/mL in data set [2] (setting [6]), 74900 ng·h/mL in data set [2] (setting [7]), 57200 ng·h/mL in data set [2] (setting [8]) and 63100 ng·h/mL in data set [2] (setting [9]). Also, the Cmax in data set [2] (setting [6]) worked out at 6080 ng/mL; in data set [2] (setting [7]), 7010 ng/mL; in data set [2] (setting [8]), 5170 ng/mL; in data set [2] (setting [9]), 5510 ng/mL. In addition, the Tmax is 3.7 ± 1.1 h in data set [2] (600 mg, Tmax, gabapentin 600 mg, Sequence AB, Days 1-2, arithmetic mean ± SD); 3.3 ± 0.8 h in data set [2] (600 mg, Tmax, gabapentin 600 mg, Sequence AB, Days 4-5, arithmetic mean ± SD); 3.7 ± 0.5 h in data set [2] (600 mg, Tmax, gabapentin 600 mg, Sequence BA, Days 1-2, arithmetic mean ± SD); 1 ± 1.1 h in data set [2] (600 mg, Tmax, gabapentin 600 mg, Sequence BA, Days 4-5, arithmetic mean ± SD); 3.3 to 4 h in data set [2] (mean Tmax, gabapentin, across days and sequences). Further, the half-life in data set [2] (600 mg, t1/2, gabapentin 600 mg, Sequence AB, Days 1-2, arithmetic mean) is 5.4 h; in data set [2] (600 mg, t1/2, gabapentin 600 mg, Sequence AB, Days 4-5, arithmetic mean), 5.5 h; in data set [2] (600 mg, t1/2, gabapentin 600 mg, Sequence BA, Days 4-5, arithmetic mean), 6.3 h; in data set [2] (mean t1/2, gabapentin, range across treatment (days, sequence)) it was 5.3 to 6.3 h. Further, the “Pharmacokinetics compared with historical controls” value in data set [2] is on record as “consistent with historical controls”. Also, in the data set with GABA receptors, the “binding to GABA receptors” value was “has not been shown to bind to GABA receptors”.
